Data from patent US20080009418A1, “Selective Inhibitors” (Alchemia LTD., priority 2004, published 2008).

Assays:
[1] = target: T1, Human melanin-concentrating hormone (MCH1) (Homo sapiens, UniProt Q99705); assay: Radioligand binding, human melanin-concentrating hormone MCH1 membranes, FlashPlate, [125I]-S36057; settings: compound at 10 μM
T1 construct: purchased Perkin Elmer Biosignal
Method in brief: (§1)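 Cloned human receptor membranes were coated onto FlashPlate wells and incubated with radioligand and compound (added from a 0.5 mM DMSO daughter plate) for 1 hour at room temperature in the dark. Scintillation counting gave percent inhibition, with DMSO defining total and reference ligand defining non-specific binding.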

[2] = target: T2, Human κ-Opioid (KOP) (Homo sapiens, UniProt P41145); assay: Radioligand binding, human κ-opioid (KOP) membranes, filtration, [3H]-Diprenorphine; settings: compound at 10 μM, [3H]-Diprenorphine
T2 construct: purchased Perkin Elmer Biosignal
Method in brief: (§2)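 Membranes from cloned human receptors were incubated with compound and radioligand for 1 hour at room temperature. Bound ligand was collected on 0.3% PEI-soaked filters, washed with cold 50 mM Tris-HCl pH 7.4, and counted by scintillation. Percent inhibition was computed against DMSO totals and reference-ligand nonspecific wells.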

[3] = target: T3, Human Melanocortin (MC4) (Homo sapiens, UniProt P32245); assay: Radioligand binding, human melanocortin MC4 membranes, FlashPlate, [125I]-NDP-αMSH; settings: compound at 10 μM, [125I]-NDP-αMSH
T3 construct: purchased Perkin Elmer Biosignal
Method in brief: as §1

[4] = target: T4, Human neuropeptide Y (NPY-Y1) (Homo sapiens, UniProt P25929); assay: Radioligand binding, human neuropeptide Y NPY-Y1 membranes, FlashPlate, [125I]-PYY; settings: compound at 10 μM, [125I]-PYY
T4 construct: purchased Perkin Elmer Biosignal
T4 sequence (P25929 1-384): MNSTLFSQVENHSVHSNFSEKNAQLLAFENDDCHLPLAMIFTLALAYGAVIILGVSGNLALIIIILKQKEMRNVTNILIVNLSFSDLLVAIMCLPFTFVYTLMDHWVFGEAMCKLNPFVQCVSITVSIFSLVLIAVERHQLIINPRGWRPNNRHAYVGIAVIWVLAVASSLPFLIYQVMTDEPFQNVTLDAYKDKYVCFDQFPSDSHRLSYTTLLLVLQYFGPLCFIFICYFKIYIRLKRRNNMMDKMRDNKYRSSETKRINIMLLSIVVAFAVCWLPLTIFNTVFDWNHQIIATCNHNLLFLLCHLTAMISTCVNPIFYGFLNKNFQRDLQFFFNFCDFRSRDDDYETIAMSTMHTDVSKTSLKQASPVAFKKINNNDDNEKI
Method in brief: as §1

[5] = target: T5, Human δ-opioid (DOP) (Homo sapiens, UniProt P41143); assay: Radioligand binding, human δ-opioid (DOP) membranes, FlashPlate, [3H]-Bremazocine; settings: compound at 10 μM, [3H]-Bremazocine
T5 construct: purchased Perkin Elmer Biosignal
Method in brief: as §1

[6] = target: T6, Human opioid (ORL1) (Homo sapiens, UniProt P41146); assay: Radioligand binding, human opioid ORL1 membranes, FlashPlate, [125I]-Nociceptin; settings: compound at 10 μM, [125I]-Nociceptin
T6 construct: purchased Perkin Elmer Biosignal
Method in brief: as §1

[7] = target: T7, Human μ-opioid (MOP) (Homo sapiens, UniProt P35372); assay: Radioligand binding, human μ-opioid (MOP) membranes, FlashPlate, [3H]-Naloxone; settings: compound at 10 μM, [3H]-Naloxone
T7 construct: purchased Perkin Elmer Biosignal
Method in brief: as §1

[8] = target: T8, Human Melanocortin (MC3) (Homo sapiens, UniProt P41968); assay: Radioligand binding, human melanocortin MC3 membranes, FlashPlate, [125I]-NDP-αMSH; settings: compound at 10 μM, [125I]-NDP-αMSH
T8 construct: purchased Perkin Elmer Biosignal
Method in brief: as §1

[9] = target: T9, Human neurokinin (NK1) (Homo sapiens, UniProt P25103); assay: Radioligand binding, human neurokinin NK1 membranes, filtration, [125I]-Substance P; settings: compound at 10 μM, [125I]-Substance P
T9 construct: purchased Perkin Elmer Biosignal
Method in brief: as §2

[10] = target: T10, Human melanocortin (MC5) (Homo sapiens, UniProt P33032); assay: Radioligand binding, human melanocortin MC5 membranes, FlashPlate, [125I]-NDP-αMSH; settings: compound at 10 μM, [125I]-NDP-αMSH
T10 construct: purchased Perkin Elmer Biosignal
Method in brief: as §1

[11] = target: T11, Mouse urotensin (mUR2) (Mus musculus, UniProt Q8VIH9); assay: Radioligand binding, mouse urotensin mUR2 membranes, FlashPlate, [125I]-Urotensin II; settings: compound at 10 μM, [125I]-Urotensin II
T11 construct: purchased Perkin Elmer Biosignal
T11 sequence (Q8VIH9 1-385): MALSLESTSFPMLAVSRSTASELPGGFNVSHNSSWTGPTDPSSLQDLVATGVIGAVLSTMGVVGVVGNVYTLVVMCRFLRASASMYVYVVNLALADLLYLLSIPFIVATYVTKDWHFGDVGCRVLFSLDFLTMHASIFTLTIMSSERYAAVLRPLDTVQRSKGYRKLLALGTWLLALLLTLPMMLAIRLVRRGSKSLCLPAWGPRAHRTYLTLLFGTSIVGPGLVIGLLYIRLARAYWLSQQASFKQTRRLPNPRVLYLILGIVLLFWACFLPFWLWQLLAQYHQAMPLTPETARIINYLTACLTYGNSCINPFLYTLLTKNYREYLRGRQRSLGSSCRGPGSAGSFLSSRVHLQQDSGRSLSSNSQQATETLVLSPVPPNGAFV
Method in brief: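 Cloned mouse urotensin (mUR2) receptor membranes from Perkin Elmer Biosignal were immobilized in FlashPlate microplates using a proprietary coating. Each well got 19.5 μl buffer, then 0.5 μl of DMSO, reference ligand, or compound. Adding 5 μl of [125I]-Urotensin II, diluted to 5× final concentration in binding buffer, started binding. Plates were sealed with TopSeal-A and incubated 1 hour at room temperature in the dark. Wells were counted for 30 seconds each on a TopCount after a 60-second delay, and percentage inhibition was calculated.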

T5 sequence (P41143 whole entry): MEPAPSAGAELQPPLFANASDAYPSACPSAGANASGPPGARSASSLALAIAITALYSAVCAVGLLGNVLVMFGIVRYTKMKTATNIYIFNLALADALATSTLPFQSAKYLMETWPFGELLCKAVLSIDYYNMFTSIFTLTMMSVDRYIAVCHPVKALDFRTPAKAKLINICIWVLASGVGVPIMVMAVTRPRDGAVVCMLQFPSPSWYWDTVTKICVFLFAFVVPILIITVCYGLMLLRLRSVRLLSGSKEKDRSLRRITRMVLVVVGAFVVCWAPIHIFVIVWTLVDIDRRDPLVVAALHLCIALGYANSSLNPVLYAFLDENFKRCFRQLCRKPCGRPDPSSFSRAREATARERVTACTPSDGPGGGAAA
T3 sequence (P32245 whole entry): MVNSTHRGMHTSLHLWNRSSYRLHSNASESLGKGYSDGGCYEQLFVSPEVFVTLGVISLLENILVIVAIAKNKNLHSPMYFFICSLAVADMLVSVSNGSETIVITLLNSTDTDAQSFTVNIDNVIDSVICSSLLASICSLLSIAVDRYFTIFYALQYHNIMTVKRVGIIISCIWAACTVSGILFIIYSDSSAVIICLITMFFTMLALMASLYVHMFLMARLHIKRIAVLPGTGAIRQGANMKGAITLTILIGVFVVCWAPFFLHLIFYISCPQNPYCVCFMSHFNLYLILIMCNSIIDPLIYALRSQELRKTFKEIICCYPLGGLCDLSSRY
T7 sequence (P35372 whole entry): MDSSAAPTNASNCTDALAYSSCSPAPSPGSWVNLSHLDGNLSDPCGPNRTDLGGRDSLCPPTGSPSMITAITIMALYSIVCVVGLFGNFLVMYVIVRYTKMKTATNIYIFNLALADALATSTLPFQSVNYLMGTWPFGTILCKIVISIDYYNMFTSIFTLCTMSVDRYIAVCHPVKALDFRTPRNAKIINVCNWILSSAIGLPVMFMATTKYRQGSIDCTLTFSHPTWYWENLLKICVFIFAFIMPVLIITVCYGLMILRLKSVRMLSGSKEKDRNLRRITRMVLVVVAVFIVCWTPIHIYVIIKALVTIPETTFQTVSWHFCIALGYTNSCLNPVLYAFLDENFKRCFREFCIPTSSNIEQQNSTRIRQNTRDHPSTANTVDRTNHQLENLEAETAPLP
T1 sequence (Q99705 whole entry): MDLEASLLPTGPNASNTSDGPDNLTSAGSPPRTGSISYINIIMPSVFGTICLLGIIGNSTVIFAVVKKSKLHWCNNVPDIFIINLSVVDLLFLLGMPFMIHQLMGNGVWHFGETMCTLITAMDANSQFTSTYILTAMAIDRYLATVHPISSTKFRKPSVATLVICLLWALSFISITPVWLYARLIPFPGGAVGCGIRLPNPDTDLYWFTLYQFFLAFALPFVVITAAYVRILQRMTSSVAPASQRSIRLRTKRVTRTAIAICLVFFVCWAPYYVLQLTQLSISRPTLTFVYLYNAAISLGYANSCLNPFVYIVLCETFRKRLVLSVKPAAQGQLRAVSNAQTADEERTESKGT
T2 sequence (P41145 whole entry): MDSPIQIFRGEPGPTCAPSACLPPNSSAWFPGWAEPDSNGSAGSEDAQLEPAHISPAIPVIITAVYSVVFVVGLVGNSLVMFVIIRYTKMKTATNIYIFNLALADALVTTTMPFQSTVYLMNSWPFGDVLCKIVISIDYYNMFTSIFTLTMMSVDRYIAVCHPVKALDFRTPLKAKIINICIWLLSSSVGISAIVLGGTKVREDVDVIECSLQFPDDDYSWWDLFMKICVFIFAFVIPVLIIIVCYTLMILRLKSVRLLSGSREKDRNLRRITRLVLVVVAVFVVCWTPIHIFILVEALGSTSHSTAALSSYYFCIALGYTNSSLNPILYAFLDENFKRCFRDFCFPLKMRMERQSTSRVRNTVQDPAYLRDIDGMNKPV
T9 sequence (P25103 whole entry): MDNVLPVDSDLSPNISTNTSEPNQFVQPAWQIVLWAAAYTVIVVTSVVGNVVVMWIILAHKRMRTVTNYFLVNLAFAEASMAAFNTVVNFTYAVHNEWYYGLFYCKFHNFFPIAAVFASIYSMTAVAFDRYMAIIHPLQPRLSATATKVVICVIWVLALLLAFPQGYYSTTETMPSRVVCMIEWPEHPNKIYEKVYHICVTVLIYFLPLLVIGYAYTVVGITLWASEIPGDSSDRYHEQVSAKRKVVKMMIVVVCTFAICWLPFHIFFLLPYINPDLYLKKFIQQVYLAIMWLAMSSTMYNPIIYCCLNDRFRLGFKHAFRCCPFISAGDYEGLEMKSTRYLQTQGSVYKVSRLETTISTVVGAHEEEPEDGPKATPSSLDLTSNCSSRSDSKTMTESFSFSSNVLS
T8 sequence (P41968 whole entry): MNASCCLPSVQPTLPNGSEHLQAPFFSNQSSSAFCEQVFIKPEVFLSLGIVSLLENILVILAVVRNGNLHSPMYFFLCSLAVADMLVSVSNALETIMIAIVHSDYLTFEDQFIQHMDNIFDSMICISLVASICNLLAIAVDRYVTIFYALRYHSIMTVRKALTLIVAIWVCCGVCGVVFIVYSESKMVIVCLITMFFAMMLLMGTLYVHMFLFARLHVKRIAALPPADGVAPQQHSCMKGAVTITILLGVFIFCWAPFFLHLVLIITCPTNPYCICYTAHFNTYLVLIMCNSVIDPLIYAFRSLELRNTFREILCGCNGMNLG
T6 sequence (P41146 whole entry): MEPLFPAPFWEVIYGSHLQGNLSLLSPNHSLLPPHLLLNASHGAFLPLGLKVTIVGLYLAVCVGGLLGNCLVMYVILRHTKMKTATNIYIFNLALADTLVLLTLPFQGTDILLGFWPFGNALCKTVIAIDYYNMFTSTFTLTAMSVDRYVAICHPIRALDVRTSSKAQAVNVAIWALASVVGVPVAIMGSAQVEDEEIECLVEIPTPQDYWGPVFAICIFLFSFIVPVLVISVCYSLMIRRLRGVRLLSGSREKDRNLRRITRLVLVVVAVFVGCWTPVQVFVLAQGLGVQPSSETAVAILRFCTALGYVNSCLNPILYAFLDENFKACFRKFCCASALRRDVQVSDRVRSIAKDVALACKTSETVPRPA
T10 sequence (P33032 whole entry): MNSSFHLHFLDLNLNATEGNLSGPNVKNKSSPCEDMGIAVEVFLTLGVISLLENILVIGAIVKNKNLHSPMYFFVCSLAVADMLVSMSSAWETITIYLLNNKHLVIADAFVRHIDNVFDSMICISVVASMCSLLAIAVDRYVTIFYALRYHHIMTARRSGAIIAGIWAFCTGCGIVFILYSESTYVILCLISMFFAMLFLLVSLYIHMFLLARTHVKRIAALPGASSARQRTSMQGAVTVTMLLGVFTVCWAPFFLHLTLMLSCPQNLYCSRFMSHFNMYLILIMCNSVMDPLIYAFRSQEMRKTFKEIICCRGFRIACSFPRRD

## NCCC(=O)NC1C(OCc2ccc3ccccc3c2)OC(COCc2ccccc2)C(O)C1OCc1ccccc1 (stereo not shown) [compound 388]
[1]; [125I]-S36057, human MCH1 membranes
  A6: inhibition of radioligand binding: − (“−” indicates less than 50% inhibition at 10 μM)
[2]; human KOP membranes
  A2: inhibition of radioligand binding: − (“−” indicates less than 50% inhibition at 10 μM)
[3]; human MC4 membranes
  A4: inhibition of radioligand binding: + (“+” indicates greater than 50% inhibition at 10 μM)
[4]; human NPY-Y1 membranes
  A9: inhibition of radioligand binding: − (“−” indicates less than 50% inhibition at 10 μM)
[5]; human DOP membranes
  A1: inhibition of radioligand binding: − (“−” indicates less than 50% inhibition at 10 μM)
[6]; human ORL1 membranes
  A10: inhibition of radioligand binding: − (“−” indicates less than 50% inhibition at 10 μM)
[7]; human MOP membranes
  A7: inhibition of radioligand binding: − (“−” indicates less than 50% inhibition at 10 μM)
[8]; human MC3 membranes
  A3: inhibition of radioligand binding: − (“−” indicates less than 50% inhibition at 10 μM)
[9]; human NK1 membranes
  A8: inhibition of radioligand binding: + (“+” indicates greater than 50% inhibition at 10 μM)
[10]; human MC5 membranes, 10 µM
  A5: inhibition of radioligand binding: + (“+” indicates greater than 50% inhibition at 10 μM)
[11]; mouse mUR2 membranes
  A11: inhibition of radioligand binding: − (“−” indicates less than 50% inhibition at 10 μM)

## CSC1OC(COCc2ccc(Cl)cc2)C(O)C(OCc2ccc(Cl)cc2)C1NC(=O)CCN (stereo not shown) [compound 271]
[1]; [125I]-S36057, FlashPlate
  A6: inhibition of radioligand binding: − (“−” indicates less than 50% inhibition at 10 μM)
[2]; filtration
  A2: inhibition of radioligand binding: − (“−” indicates less than 50% inhibition at 10 μM)
[3]; FlashPlate
  A4: inhibition of radioligand binding: − (“−” indicates less than 50% inhibition at 10 μM)
[4]; FlashPlate
  A9: inhibition of radioligand binding: − (“−” indicates less than 50% inhibition at 10 μM)
[5]; FlashPlate
  A1: inhibition of radioligand binding: − (“−” indicates less than 50% inhibition at 10 μM)
[6]; FlashPlate
  A10: inhibition of radioligand binding: − (“−” indicates less than 50% inhibition at 10 μM)
[7]; FlashPlate
  A7: inhibition of radioligand binding: − (“−” indicates less than 50% inhibition at 10 μM)
[8]; FlashPlate
  A3: inhibition of radioligand binding: − (“−” indicates less than 50% inhibition at 10 μM)
[9]; filtration
  A8: inhibition of radioligand binding: + (“+” indicates greater than 50% inhibition at 10 μM)
[10]; FlashPlate
  A5: inhibition of radioligand binding: − (“−” indicates less than 50% inhibition at 10 μM)
[11]; FlashPlate
  A11: inhibition of radioligand binding: − (“−” indicates less than 50% inhibition at 10 μM)

## COC[C@H]1OC(OCc2ccc(-c3ccccc3)cc2)[C@H](NC(=O)CCCNC(=N)N)[C@@H](OCc2ccc(-c3ccccc3)cc2)[C@@H]1O (single isomer, unassigned) [compound 336]
[1]; [125I]-S36057
  A6: inhibition of radioligand binding, human melanin-concentrating hormone (MCH1): + (“+” indicates greater than 50% inhibition at 10 μM)
[2]; 10 µM
  A2: inhibition of radioligand binding, human κ-opioid (KOP): − (“−” indicates less than 50% inhibition at 10 μM)
[3]
  A4: inhibition of radioligand binding, human melanocortin (MC4): + (“+” indicates greater than 50% inhibition at 10 μM)
[4]
  A9: inhibition of radioligand binding, human neuropeptide Y (NPY-Y1): − (“−” indicates less than 50% inhibition at 10 μM)
[5]; 10 µM
  A1: inhibition of radioligand binding, human δ-opioid (DOP): − (“−” indicates less than 50% inhibition at 10 μM)
[6]
  A10: inhibition of radioligand binding, human opioid (ORL1): − (“−” indicates less than 50% inhibition at 10 μM)
[7]; 10 µM
  A7: inhibition of radioligand binding, human μ-opioid (MOP): − (“−” indicates less than 50% inhibition at 10 μM)
[8]; 10 µM
  A3: inhibition of radioligand binding, human melanocortin (MC3): − (“−” indicates less than 50% inhibition at 10 μM)
[9]
  A8: inhibition of radioligand binding, human neurokinin (NK1): + (“+” indicates greater than 50% inhibition at 10 μM)
[10]
  A5: inhibition of radioligand binding, human melanocortin (MC5): + (“+” indicates greater than 50% inhibition at 10 μM)
[11]
  A11: inhibition of radioligand binding, mouse urotensin (mUR2): − (“−” indicates less than 50% inhibition at 10 μM)

## COC[C@H]1OC(OCc2ccccc2)[C@H](NC(=O)CCCN)[C@@H](OCc2cccc(O)c2)[C@@H]1O (stereo partly shown) [compound 136]
[1]; [125I]-S36057
  A6 radioligand binding, percentage inhibition: − (“−” indicates less than 50% inhibition at 10 μM)
[2]
  A2 radioligand binding, percentage inhibition: − (“−” indicates less than 50% inhibition at 10 μM)
[3]
  A4 radioligand binding, percentage inhibition: − (“−” indicates less than 50% inhibition at 10 μM)
[4]
  A9 radioligand binding, percentage inhibition: − (“−” indicates less than 50% inhibition at 10 μM)
[5]
  A1 radioligand binding, percentage inhibition: − (“−” indicates less than 50% inhibition at 10 μM)
[6]
  A10 radioligand binding, percentage inhibition: − (“−” indicates less than 50% inhibition at 10 μM)
[7]
  A7 radioligand binding, percentage inhibition: − (“−” indicates less than 50% inhibition at 10 μM)
[8]
  A3 radioligand binding, percentage inhibition: − (“−” indicates less than 50% inhibition at 10 μM)
[9]
  A8 radioligand binding, percentage inhibition: + (“+” indicates greater than 50% inhibition at 10 μM)
[10]
  A5 radioligand binding, percentage inhibition: − (“−” indicates less than 50% inhibition at 10 μM)
[11]
  A11 radioligand binding, percentage inhibition: − (“−” indicates less than 50% inhibition at 10 μM)

## CSC1OC(COCc2ccccc2)C(O)C(OCc2ccc(Cl)cc2)C1NC(=O)CCN (stereo not shown) [compound 266]
[1]; [125I]-S36057, FlashPlate
  A6: inhibition of radioligand binding: − (“−” indicates less than 50% inhibition at 10 μM)
[2]; filtration
  A2: inhibition of radioligand binding: − (“−” indicates less than 50% inhibition at 10 μM)
[3]; FlashPlate
  A4: inhibition of radioligand binding: − (“−” indicates less than 50% inhibition at 10 μM)
[4]; FlashPlate
  A9: inhibition of radioligand binding: − (“−” indicates less than 50% inhibition at 10 μM)
[5]; FlashPlate
  A1: inhibition of radioligand binding: − (“−” indicates less than 50% inhibition at 10 μM)
[6]; FlashPlate
  A10: inhibition of radioligand binding: − (“−” indicates less than 50% inhibition at 10 μM)
[7]; FlashPlate
  A7: inhibition of radioligand binding: − (“−” indicates less than 50% inhibition at 10 μM)
[8]; FlashPlate
  A3: inhibition of radioligand binding: − (“−” indicates less than 50% inhibition at 10 μM)
[9]; filtration
  A8: inhibition of radioligand binding: + (“+” indicates greater than 50% inhibition at 10 μM)
[10]; FlashPlate
  A5: inhibition of radioligand binding: − (“−” indicates less than 50% inhibition at 10 μM)
[11]; FlashPlate
  A11: inhibition of radioligand binding: − (“−” indicates less than 50% inhibition at 10 μM)
